According to paper PMC8179539, “Query-guided protein–protein interaction inhibitor discovery” (Chemical Science, 2021):
“And” between values parts separate entries of the source, which are not always exact repeats. Equal entries are not always repeated. Where two headings read alike, the source gives them in different places.

Columns and labels:
p53/hDM2 = p53/hDM2 (Homo sapiens, UniProt Q00987); assay: competition fluorescence anisotropy assay, displacement of p53 15-31 Flu from hDM2; assay type: binding; details: for ligand efficiency: LE = 1.4 × pIC50/nHA, from p53/hDM2 fluorescence anisotropy IC50
BID/MCL-1 = BID/MCL-1 (Homo sapiens, UniProt Q07820); details: 200 nM MCL-1, 50 nM FITC-Ahx-NOXA-B tracer (Fig. S10)
GKAP/SHANK1-PDZ = target: T1, GKAP/SHANK1-PDZ (Homo sapiens, UniProt Q9Y566); assay: fluorescence anisotropy competition assay GKAP/SHANK1-PDZ; assay type: binding; details: for IC50: FITC-GKAP 50 nM, SHANK1-PDZ 1 μM, pH 7.4, 20 mM Tris, 150 mM NaCl, 0.01% Triton-X-100
T1 construct: Shank 1 PDZ domain (656-762) was expressed and purified as described; made in house
T1 sequence (Q9Y566 656-762): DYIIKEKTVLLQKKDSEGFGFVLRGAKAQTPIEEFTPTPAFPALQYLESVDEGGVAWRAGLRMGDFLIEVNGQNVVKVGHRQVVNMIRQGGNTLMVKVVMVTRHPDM

SHANK1-PDZ = SHANK1-PDZ (Homo sapiens, UniProt Q9Y566); assay: biochemical
[1] = Table S2, SAR competition assays, Plate Reader II, read-out: IC50
[2] = fluorescence anisotropy competition, 150 nM hDM2, 25 nM p53 15-31 Flu, 40 mM phosphate pH 7.4, 200 mM NaCl, 0.02 mg/ml BSA, read-out: IC50
[3] = Table S2, SAR competition assays, Plate Reader II, * lower anisotropy observed, attributed to solubility causing assay interference (7a, 7b, 7c), read-out: IC50
[4] = Fig. 4b, same assay, unit inferred, † non-specific interactions observed (11c), read-out: IC50 (Fig. 4b, numbers inside wedges)
[5] = Fig. 4b, fluorescence anisotropy competition: 150 nM hDM2 and p53 15-31 Flu, 40 mM phosphate, pH 7.4, 200 mM NaCl, 0.02 mg/ml BSA, > 150 μM, read-out: IC50 (Fig. 4b)

Row | Compound | IC50 (p53/hDM2; [1]) [µM] | IC50 (p53/hDM2; [2]) | IC50 (p53/hDM2; [3]) [µM] | further results
1 | CC(C(=O)NCCc1ccccn1)C(c1ccc(Cl)s1)c1c[nH]c2ccc(Cl)cc12 (single isomer, unassigned; (+)) [(+)-anti-10] | 2.9 ± 0.4 | 2.9 µM | – | –
2 | CC(C(=O)NCCc1ccccn1)C(c1ccc(Cl)s1)c1c[nH]c2ccc(Cl)cc12 (single isomer, unassigned; (-)) [(−)-anti-10] | 4.6 ± 0.6 | 4.6 µM | – | –
3 | O=C(CC(c1ccc(Cl)s1)c1c[nH]c2ccc(Cl)cc12)NC1CC1c1ccccc1 (stereo not drawn) [7a] | – | – | 1.2 ± 1 | –
4 | O=C(CC(c1ccc(Cl)s1)c1c[nH]c2ccc(Cl)cc12)NCCc1ccccc1 (stereo not drawn) [7b] | – | – | 13 ± 2 | –
5 | O=C(CC(c1ccc(Cl)s1)c1c[nH]c2ccc(Cl)cc12)NCc1ccccc1 (stereo not drawn) [7c] | – | – | 5 ± 2 | p53/hDM2 inhibitory activity in words (SAR) (p53/hDM2; competition anisotropy, SAR discussion): loss of activity
6 | COCCNC(=O)CC(c1ccc(Cl)s1)c1c[nH]c2ccc(Cl)cc12 (stereo not drawn) [7d] | – | – | > 200 | –
7 | COCCNC(=O)CC(c1ccc(Cl)s1)c1c[nH]c2cc(Cl)ccc12 (stereo not drawn) [8c] | – | – | 86 ± 29 | –
8 | COCCNC(=O)CC(c1ccccc1)c1c[nH]c2ccc(Cl)cc12 (stereo not drawn) [9d] | – | – | > 200 | –
9 | CCOC(=O)CCNC(=O)c1[nH]c2ccc(Cl)cc2c1C(CC(=O)NCCc1ccccn1)c1ccc(Cl)s1 (stereo not drawn) [11c] | 3.2 ± 0.7 | – | – | IC50 (p53/hDM2; [4]): 3 µM
10 | O=C(O)CCNC(=O)c1[nH]c2ccc(Cl)cc2c1C(CC(=O)NCCc1ccccn1)c1ccc(Cl)s1 (stereo not drawn) [11e] | 14 ± 2 | – | – | –
11 | O=C(CC(c1ccc(Cl)s1)c1c(C(=O)NCc2ccccc2)[nH]c2ccc(Cl)cc12)NCCc1ccccn1 (stereo not drawn) [11h] | > 200 | – | – | –
12 | O=C(CC(c1ccc(Cl)s1)c1c[nH]c2ccc(Cl)cc12)NCCc1ccccn1 (stereo not drawn) [A1] | – | 7.9 µM and 8 µM | 7.9 ± 0.9 | inhibition in FA competition assay for BID/MCL-1 (BID/MCL-1): no inhibition; IC50 (p53/hDM2; [4]): 8 µM; ligand efficiency (p53/hDM2): 0.24
13 | NS(=O)(=O)c1ccc2c(c1)[C@@H]1C=CC[C@@H]1[C@H](C(=O)O)N2 [Z-1] | – | – | – | IC50 (GKAP/SHANK1-PDZ): 390 µM; ligand efficiency (LE) (GKAP/SHANK1-PDZ; from GKAP/SHANK1-PDZ fluorescence anisotropy IC50): 0.24
14 | O=C(O)c1ccc([N+](=O)[O-])c2c1NC(C(=O)O)[C@H]1CC=C[C@@H]21 (stereo partly drawn) [Z-2, reference compound] | – | – | – | IC50 (GKAP/SHANK1-PDZ): ~110 µM
15 | CC(C)(C(=O)NCCc1ccccn1)C(c1ccc(Cl)s1)c1c[nH]c2ccc(Cl)cc12 (stereo not drawn) [compound 12] | 8 ± 4 | ~8 µM | – | IC50 (p53/hDM2; [5]): 8 µM
16 | CC(C(=O)N1CCC(c2ccccn2)C1)C(c1ccc(Cl)s1)c1c[nH]c2cc(Cl)ccc12 (stereo not drawn) [compound 13] | 1.2 ± 0.4 | 1.2 µM | – | IC50 (p53/hDM2; [5]): 1 µM
17 | Ac-EAQTRF-OH [L6F GKAP, Ac-Glu-Ala-Gln-Thr-Arg-Phe-CO2H] | – | – | – | Kd (SHANK1-PDZ): 5 µM

Now from value to compound, other results behind:

Row | IC50 (p53/hDM2; [1]) [µM] | IC50 (p53/hDM2; [2]) | IC50 (p53/hDM2; [3]) [µM] | Compound | further results
18 | – | 6 µM | 10 ± 2 | O=C(CC(c1ccc(Cl)s1)c1c[nH]c2cc(Cl)ccc12)NCCc1ccccn1 (stereo not drawn) [8a] | –
19 | – | – | 18 ± 11 | O=C(CC(c1ccc(Cl)s1)c1c[nH]c2cc(Cl)ccc12)NCCc1ccccc1 (stereo not drawn) [8b] | –
20 | – | – | > 200 | O=C(CC(c1ccccc1)c1c[nH]c2ccc(Cl)cc12)NCCc1ccccn1 (stereo not drawn) [9a] | –
21 | – | – | > 200 | O=C(CC(c1ccccc1)c1c[nH]c2ccc(Cl)cc12)NCCc1ccccc1 (stereo not drawn) [9b] | –
22 | 1.7 ± 0.2 | 1 µM | – | O=C(CC(c1ccc(Cl)s1)c1c(Br)[nH]c2cc(Cl)ccc12)NCCc1ccccn1 (stereo not drawn) [11a] | IC50 (p53/hDM2; [4]): 2 µM; ligand efficiency (p53/hDM2): 0.28
23 | 2.9 ± 0.2 | – | – | O=C(CC(c1ccc(Cl)s1)c1c(C(=O)O)[nH]c2ccc(Cl)cc12)NCCc1ccccn1 (stereo not drawn) [11b] | IC50 (p53/hDM2; [4]): 3 µM; ligand efficiency (p53/hDM2): 0.26
24 | 12 ± 9 | – | – | O=C(CC(c1ccc(Cl)s1)c1c(Br)[nH]c2ccc(Cl)cc12)NCCc1ccccn1 (stereo not drawn) [11d] | –
25 | 25 ± 4 | 25 µM | – | NCCNC(=O)c1[nH]c2ccc(Cl)cc2c1C(CC(=O)NCCc1ccccn1)c1ccc(Cl)s1 (stereo not drawn) [11f] | –
26 | > 200 | – | – | CC(C)(C)OC(=O)NCCNC(=O)c1[nH]c2ccc(Cl)cc2c1C(CC(=O)NCCc1ccccn1)c1ccc(Cl)s1 (stereo not drawn) [11g] | –
27 | > 200 | – | – | CC(C)CNC(=O)c1[nH]c2ccc(Cl)cc2c1C(CC(=O)NCCc1ccccn1)c1ccc(Cl)s1 (stereo not drawn) [11i] | –
28 | 3.1 ± 0.4 | 3.1 µM | – | CC(C(=O)NCCc1ccccn1)C(c1ccc(Cl)s1)c1c[nH]c2ccc(Cl)cc12 (stereo not drawn) [anti-10] | ligand efficiency (p53/hDM2): 0.26
29 | 2.2 ± 0.5 | 2.2 µM | – | O=C(CC(c1ccc(Cl)s1)c1c(C(=O)O)[nH]c2ccc(Cl)cc12)NC1CC1c1ccccc1 (stereo not drawn) [compound 14] | IC50 (p53/hDM2; [5]): 2 µM
30 | 21 ± 14 | – | – | CC(C(=O)NCCc1ccccn1)C(c1ccc(Cl)s1)c1c[nH]c2ccc(Cl)cc12 (stereo not drawn) [syn-10] | –
